Laboratory results as given in patent US10323000B2, “Indole derivatives and their use in neurodegenerative diseases” (priority 2014, dated 2019).
Where two headings read alike, the source gives them in different places.

Columns and labels:
human P2X7 receptor = human P2X7 receptor (Homo sapiens (Human), UniProt Q99572); test: Pore permeation assay (YO PRO dye uptake); assay type: cell-based
[1] = biological target: P2X7 (IL-1β release from THP-1 cells) (Homo sapiens (Human), UniProt Q99572); test: IL-1β release assay; assay type: cell-based
How it was run: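 THP-1 cells were differentiated with PMA 0.5 μM and primed 4 h with LPS 10 ng/ml. They were then pre-incubated 20 min with compound at 37° C and stimulated 30 min with BzATP 0.8 mM. Mature IL-1β released into the supernatant was quantified by sandwich ELISA.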

[2] = THP-1 cells, LPS primed, 0.8 mM BzATP, mature IL-1β by sandwich ELISA, read-out: hTHP-1/IL-ib IC50
[3] = HEK293 transfected with human P2X7, BzATP 10 uM, YO PRO dye uptake, read-out: hP2X7 IC50

P2X7 (IL-1β release from THP-1 cells), sequence (Q99572 whole entry): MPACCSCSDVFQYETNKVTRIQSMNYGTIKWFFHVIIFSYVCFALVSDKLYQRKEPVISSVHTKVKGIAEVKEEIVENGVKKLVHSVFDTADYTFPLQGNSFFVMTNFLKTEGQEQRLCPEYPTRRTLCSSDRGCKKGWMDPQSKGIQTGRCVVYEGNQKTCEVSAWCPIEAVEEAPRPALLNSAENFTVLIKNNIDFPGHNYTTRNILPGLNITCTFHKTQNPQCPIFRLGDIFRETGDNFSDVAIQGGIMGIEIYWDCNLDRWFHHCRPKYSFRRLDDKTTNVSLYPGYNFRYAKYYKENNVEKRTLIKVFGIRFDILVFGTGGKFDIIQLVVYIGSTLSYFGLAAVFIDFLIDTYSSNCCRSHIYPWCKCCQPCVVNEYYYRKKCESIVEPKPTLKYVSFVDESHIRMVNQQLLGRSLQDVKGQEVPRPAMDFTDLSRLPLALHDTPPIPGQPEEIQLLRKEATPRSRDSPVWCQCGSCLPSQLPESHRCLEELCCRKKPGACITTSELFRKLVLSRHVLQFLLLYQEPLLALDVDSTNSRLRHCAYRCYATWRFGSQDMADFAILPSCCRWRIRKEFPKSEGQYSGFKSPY
human P2X7 receptor, sequence (Q99572 whole entry): as above

Structure (SMILES) | IC50 (human P2X7 receptor) [nM] | IC50 [1, 2] [nM] | IC50 (human P2X7 receptor; [3]) [nM] | IC50 [1] [nM]
CC1CC(CNC(=O)c2cn(CC3CCCN3)c3cccc(Cl)c23)CC(F)(F)C1 (stereo not shown) [Compound 157, 4-chloro-N-((3,3-difluoro-5-methylcyclohexyl)methyl)-1-(pyrrolidin-2-ylmethyl)-1H-indole-3-carboxamide] | 10 to 100 | < 10 |  | 
O=C(NCC1CCC(F)(F)CC1)c1cn(CC2CCCN2)c2cccc(Cl)c12 (stereo not shown) [Compound 158, 4-chloro-N-((4,4-difluorocyclohexyl)methyl)-1-(pyrrolidin-2-ylmethyl)-1H-indole-3-carboxamide] |  | < 10 | < 10 | 
O=C(NCC1(O)CCCC(F)(F)C1)c1cn(CC2CCNC2)c2cccc(Cl)c12 (stereo not shown) [Compound 159, 4-chloro-N-((3,3-difluoro-1-hydroxycyclohexyl)methyl)-1-(pyrrolidin-3-ylmethyl)-1H-indole-3-carboxamide] | 10 to 100 |  |  | 101 to 500
O=C(NCC1CCC(F)(F)CC1)c1cn(CC2CCNC2)c2cccc(Cl)c12 (stereo not shown) [Compound 160] | 101 to 500 |  |  | 101 to 500
O=C1CC[C@H](Cn2cc(C(=O)NCC3CCC(F)(F)CC3)c3c(Cl)cccc32)N1 [Compound 162, (R)-4-chloro-N-((4,4-difluorocyclohexyl)methyl)-1-((5-oxopyrrolidin-2-yl)methyl)-1H-indole-3-carboxamide] | 10 to 100 |  |  | 10 to 100
O=C(NCC1CCC(F)(F)CC1)c1cn(CC(=O)N2CCC2)c2cccc(Cl)c12 [Compound 163] |  |  | < 10 | 10 to 100
O=C(NCC1CCC(F)(F)CC1)c1cn(CC2COCCN2)c2cccc(Cl)c12 (stereo not shown) [Compound 164, 4-chloro-N-((4,4-difluorocyclohexyl)methyl)-1-(morpholin-3-ylmethyl)-1H-indole-3-carboxamide] | 101 to 500 |  |  | 10 to 100
O=C(NCC1(O)CCC(F)(F)CC1)c1cn(CC2CCCCO2)c2cccc(Cl)c12 (stereo not shown) [Compound 166, 4-chloro-N-((4,4-difluoro-1-hydroxycyclohexyl)methyl)-1-((tetrahydro-2H-pyran-2-yl)methyl)-1H-indole-3-carboxamide] | 10 to 100 |  |  | 10 to 100
O=C(NCC1CCC(F)(F)CC1)c1cn(CC2CCCCO2)c2cccc(Cl)c12 (stereo not shown) [Compound 167, 4-chloro-N-((4,4-difluorocyclohexyl)methyl)-1-((tetrahydro-2H-pyran-2-yl)methyl)-1H-indole-3-carboxamide] | 10 to 100 |  |  | 10 to 100
O=C(NCC1CCC(F)(F)CC1)c1cn(CC2CCOCC2)c2cccc(Cl)c12 [Compound 168, 4-chloro-N-((4,4-difluorocyclohexyl)methyl)-1-((tetrahydro-2H-pyran-4-yl)methyl)-1H-indole-3-carboxamide] | 10 to 100 |  |  | 101 to 500
CN1CCC[C@H]1Cn1cc(C(=O)NCC2(O)CCC(F)(F)CC2)c2c(Cl)cccc21 [Compound 169, (S)-4-chloro-N-((4,4-difluoro-1-hydroxycyclohexyl)methyl)-1-((1-methylpyrrolidin-2-yl)methyl)-1H-indole-3-carboxamide] | 10 to 100 |  |  | 10 to 100
CN1CCCC1Cn1cc(C(=O)NCC2CCC(F)(F)CC2)c2c(Cl)cccc21 (stereo not shown) [Compound 170, 4-chloro-N-((4,4-difluorocyclohexyl)methyl)-1-((1-methylpyrrolidin-2-yl)methyl)-1H-indole-3-carboxamide] | 10 to 100 |  |  | 10 to 100
O=C(NCC1CCC(F)(F)CC1)c1cn(C2CN(C3CC3)C2)c2cccc(Cl)c12 [Compound 171, 4-chloro-1-(1-cyclopropylazetidin-3-yl)-N-((4,4-difluorocyclohexyl)methyl)-1H-indole-3-carboxamide] | 101 to 500 |  |  | 500 to 999
O=C(NCC1CCC(F)(F)CC1)c1cn(CC2CCCCN2)c2cccc(Cl)c12 (stereo not shown) [Compound 173, 4-chloro-N-((4,4-difluorocyclohexyl)methyl)-1-(piperidin-2-ylmethyl)-1H-indole-3-carboxamide] |  | < 10 | < 10 | 
O=C(NCC1CCC(F)(F)CC1)c1cn(CC2CCCNC2)c2cccc(Cl)c12 (stereo not shown) [Compound 174, 4-chloro-N-((4,4-difluorocyclohexyl)methyl)-1-(piperidin-3-ylmethyl)-1H-indole-3-carboxamide] | 10 to 100 |  |  | 10 to 100
O=C(NCC1CCC(F)(F)CC1)c1cn(CC2CCNCC2)c2cccc(Cl)c12 [Compound 175, 4-chloro-N-((4,4-difluorocyclohexyl)methyl)-1-(piperidin-4-ylmethyl)-1H-indole-3-carboxamide] | 101 to 500 |  |  | 101 to 500

Structure (SMILES) | IC50 (human P2X7 receptor) [nM] | IC50 [1, 2] [nM] | IC50 (human P2X7 receptor; [3]) [nM] | IC50 [1] [nM]
O=C(NC[C@@]1(O)CCCC(F)(F)C1)c1cn(CCN2CCCC2)c2cccc(Cl)c12 [Compound 176, (R)-4-chloro-N-((3,3-difluoro-1-hydroxycyclohexyl)methyl)-1-(2-(pyrrolidin-1-yl)ethyl)-1H-indole-3-carboxamide] |  | > 1000 | > 1000 | 
O=C(NC[C@]1(O)CCCC(F)(F)C1)c1cn(CCN2CCCC2)c2cccc(Cl)c12 [Compound 177, (S)-4-chloro-N-((3,3-difluoro-1-hydroxycyclohexyl)methyl)-1-(2-(pyrrolidin-1-yl)ethyl)-1H-indole-3-carboxamide] | 101 to 500 |  |  | 101 to 500
O=C(NCC1(O)CCCC(F)(F)C1)c1cn(CCN2CCCC2)c2cccc(Cl)c12 (stereo not shown) [Compound 178, 4-chloro-N-((3,3-difluoro-1-hydroxycyclohexyl)methyl)-1-(2-(pyrrolidin-1-yl)ethyl)-1H-indole-3-carboxamide] | 10 to 100 |  |  | 10 to 100
O=C(NCC1CCC(F)(F)CC1)c1cn(CCN2CCCC2)c2cccc(Cl)c12 [Compound 179, 4-chloro-N-((4,4-difluorocyclohexyl)methyl)-1-(2-(pyrrolidin-1-yl)ethyl)-1H-indole-3-carboxamide] | 101 to 500 |  |  | 101 to 500
CN1CC(F)(F)C[C@H]1Cn1cc(C(=O)NCC2CCC(F)(F)CC2)c2c(Cl)cccc21 [Compound 180, (S)-4-chloro-1-((4,4-difluoro-1-methylpyrrolidin-2-yl)methyl)-N-((4,4-difluorocyclohexyl)methyl)-1H-indole-3-carboxamide] | 101 to 500 |  |  | 500 to 999
CC(=O)N1CC[C@H]1Cn1cc(C(=O)NCC2CCC(F)(F)CC2)c2c(Cl)cccc21 [Compound 181, (S)-1-((1-acetylazetidin-2-yl)methyl)-4-chloro-N-((4,4-difluorocyclohexyl)methyl)-1H-indole-3-carboxamide] |  | 101 to 500 | 101 to 500 | 
CN1C(=O)CC[C@@H]1Cn1cc(C(=O)NCC2CCC(F)(F)CC2)c2c(Cl)cccc21 [Compound 182, (R)-4-chloro-N-((4,4-difluorocyclohexyl)methyl)-1-((1-methyl-5-oxopyrrolidin-2-yl)methyl)-1H-indole-3-carboxamide] | 10 to 100 |  |  | 10 to 100
CN1CCOC(Cn2cc(C(=O)NCC3CCC(F)(F)CC3)c3c(Cl)cccc32)C1 (stereo not shown) [Compound 183, 4-chloro-N-((4,4-difluorocyclohexyl)methyl)-1-((4-methylmorpholin-2-yl)methyl)-1H-indole-3-carboxamide] | 10 to 100 |  |  | 10 to 100
CN1CCOCC1Cn1cc(C(=O)NCC2CCC(F)(F)CC2)c2c(Cl)cccc21 (stereo not shown) [Compound 184, 4-chloro-N-((4,4-difluorocyclohexyl)methyl)-1-((4-methylmorpholin-3-yl)methyl)-1H-indole-3-carboxamide] | 101 to 500 |  |  | 101 to 500
O=C(NCC1CCC(F)(F)CC1)c1cn(CC(=O)N2CCCC2)c2cccc(Cl)c12 [Compound 185, 4-Chloro-1-(2-oxo-2-pyrrolidin-1-yl-ethyl)-1H-indole-3-carboxylic acid (4,4-difluoro-cyclohexylmethyl)-amide] | 10 to 100 |  |  | 10 to 100
O=C(NC[C@@]1(O)CCCC(F)(F)C1)c1cn(CCN2CCCC2=O)c2cccc(Cl)c12 [Compound 186, (R)-4-chloro-N-((3,3-difluoro-1-hydroxycyclohexyl)methyl)-1-(2-(2-oxopyrrolidin-1-yl)ethyl)-1H-indole-3-carboxamide] |  | > 1000 | > 1000 | 
O=C(NC[C@]1(O)CCCC(F)(F)C1)c1cn(CCN2CCCC2=O)c2cccc(Cl)c12 [Compound 187, (S)-4-chloro-N-((3,3-difluoro-1-hydroxycyclohexyl)methyl)-1-(2-(2-oxopyrrolidin-1-yl)ethyl)-1H-indole-3-carboxamide] | 10 to 100 |  |  | 101 to 500
O=C(NCC1(O)CCCC(F)(F)C1)c1cn(CCN2CCCC2=O)c2cccc(Cl)c12 (stereo not shown) [Compound 188, 4-chloro-N-((3,3-difluoro-1-hydroxycyclohexyl)methyl)-1-(2-(2-oxopyrrolidin-1-yl)ethyl)-1H-indole-3-carboxamide] | 10 to 100 |  |  | 10 to 100
O=C(NCC1CCC(F)(F)CC1)c1cn(CCN2CCCC2=O)c2cccc(Cl)c12 [Compound 189, 4-chloro-N-((4,4-difluorocyclohexyl)methyl)-1-(2-(2-oxopyrrolidin-1-yl)ethyl)-1H-indole-3-carboxamide] | 10 to 100 |  |  | 101 to 500
O=C(NCC1CCC(F)(F)CC1)c1cn(CC(=O)N2CCOCC2)c2cccc(Cl)c12 [Compound 190, 4-Chloro-1-(2-morpholin-4-yl-2-oxo-ethyl)-1H-indole-3-carboxylic acid (4,4-difluoro-cyclohexylmethyl)-amide] |  | 101 to 500 | 101 to 500 | 
CC(C)N1CC[C@H]1Cn1cc(C(=O)NCC2CCC(F)(F)CC2)c2c(Cl)cccc21 [Compound 191, (S)-4-chloro-N-((4,4-difluorocyclohexyl)methyl)-1-((1-isopropylazetidin-2-yl)methyl)-1H-indole-3-carboxamide] | 101 to 500 | > 1000 |  | 
